One test concerns the target PDGFRβ (Rattus norvegicus (Rat), UniProt Q05030). Put plainly: PDGFRβ Cellular Assay (PDGFRb P-Y751 HTRF in A10 cells stimulated with PDGF-BB). It counts as cell-based. The procedure, abridged: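 Phospho-Y751 PDGFRβ was measured by HTRF in lysates of A10 rat cells. Cells received compound for 3 hours before PDGF-BB stimulation (100 ng/mL working stock).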
For orientation: In TR-FRET formats the signal depends on donor and acceptor labels being close together.

For another test, the target named is VEGFR2, unphosphorylated (Homo sapiens (Human), UniProt P35968). The test is described as follows: VEGFR ADP GLO Assay. It counts as biochemical. On the technique in general: In ADP-Glo the light output rises with the ADP produced.
Chain of VEGFR2, unphosphorylated (P35968 20-1356): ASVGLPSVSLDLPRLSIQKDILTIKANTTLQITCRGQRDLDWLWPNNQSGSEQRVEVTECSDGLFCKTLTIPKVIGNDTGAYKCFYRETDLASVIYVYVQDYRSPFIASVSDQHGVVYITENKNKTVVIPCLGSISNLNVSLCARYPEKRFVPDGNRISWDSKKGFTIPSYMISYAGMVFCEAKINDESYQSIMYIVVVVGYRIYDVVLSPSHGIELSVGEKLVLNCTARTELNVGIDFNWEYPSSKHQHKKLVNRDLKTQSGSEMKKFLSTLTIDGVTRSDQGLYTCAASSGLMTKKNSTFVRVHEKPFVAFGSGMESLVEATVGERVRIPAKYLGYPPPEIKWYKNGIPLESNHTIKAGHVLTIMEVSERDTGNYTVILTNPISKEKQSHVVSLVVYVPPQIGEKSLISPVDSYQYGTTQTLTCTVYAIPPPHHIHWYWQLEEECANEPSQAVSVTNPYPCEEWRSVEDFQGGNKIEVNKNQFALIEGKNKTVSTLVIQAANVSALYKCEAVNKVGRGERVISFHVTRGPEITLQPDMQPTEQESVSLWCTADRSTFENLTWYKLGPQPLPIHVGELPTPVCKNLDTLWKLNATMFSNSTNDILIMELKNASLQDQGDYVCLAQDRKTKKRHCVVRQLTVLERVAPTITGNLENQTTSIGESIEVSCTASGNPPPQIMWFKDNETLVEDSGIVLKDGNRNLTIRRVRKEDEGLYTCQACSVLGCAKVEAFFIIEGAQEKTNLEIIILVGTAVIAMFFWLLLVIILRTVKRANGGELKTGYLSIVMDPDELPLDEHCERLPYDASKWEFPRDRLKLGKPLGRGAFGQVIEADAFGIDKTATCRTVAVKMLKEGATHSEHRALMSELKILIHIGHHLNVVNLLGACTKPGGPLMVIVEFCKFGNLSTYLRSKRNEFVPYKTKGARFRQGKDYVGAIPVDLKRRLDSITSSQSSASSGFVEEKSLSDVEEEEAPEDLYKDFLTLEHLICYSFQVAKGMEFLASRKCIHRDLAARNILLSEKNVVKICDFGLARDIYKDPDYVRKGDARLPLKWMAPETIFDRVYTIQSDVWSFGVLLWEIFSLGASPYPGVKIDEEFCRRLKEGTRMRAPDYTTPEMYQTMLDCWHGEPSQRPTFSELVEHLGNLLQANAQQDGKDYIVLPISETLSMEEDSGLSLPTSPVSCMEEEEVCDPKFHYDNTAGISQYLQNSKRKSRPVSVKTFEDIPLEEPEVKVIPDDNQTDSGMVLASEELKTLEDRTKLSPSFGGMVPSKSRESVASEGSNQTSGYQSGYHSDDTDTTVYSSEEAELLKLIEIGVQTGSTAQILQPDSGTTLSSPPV
Test [1] has as its target Tb-labeled inactive PDGFRβ (Homo sapiens (Human), UniProt P09619). Put plainly: PDGFRβ LanthaScreen Assay. Conditions: read-out: PDGFR Lantha IC50. It counts as binding.

Structures are written as SMILES. Like-named read-outs stand apart in the source and are kept apart here.

For orientation: IC50 means the point on the concentration scale where inhibition reaches its midpoint.

Chain of PDGFRβ (Q05030 32-1097): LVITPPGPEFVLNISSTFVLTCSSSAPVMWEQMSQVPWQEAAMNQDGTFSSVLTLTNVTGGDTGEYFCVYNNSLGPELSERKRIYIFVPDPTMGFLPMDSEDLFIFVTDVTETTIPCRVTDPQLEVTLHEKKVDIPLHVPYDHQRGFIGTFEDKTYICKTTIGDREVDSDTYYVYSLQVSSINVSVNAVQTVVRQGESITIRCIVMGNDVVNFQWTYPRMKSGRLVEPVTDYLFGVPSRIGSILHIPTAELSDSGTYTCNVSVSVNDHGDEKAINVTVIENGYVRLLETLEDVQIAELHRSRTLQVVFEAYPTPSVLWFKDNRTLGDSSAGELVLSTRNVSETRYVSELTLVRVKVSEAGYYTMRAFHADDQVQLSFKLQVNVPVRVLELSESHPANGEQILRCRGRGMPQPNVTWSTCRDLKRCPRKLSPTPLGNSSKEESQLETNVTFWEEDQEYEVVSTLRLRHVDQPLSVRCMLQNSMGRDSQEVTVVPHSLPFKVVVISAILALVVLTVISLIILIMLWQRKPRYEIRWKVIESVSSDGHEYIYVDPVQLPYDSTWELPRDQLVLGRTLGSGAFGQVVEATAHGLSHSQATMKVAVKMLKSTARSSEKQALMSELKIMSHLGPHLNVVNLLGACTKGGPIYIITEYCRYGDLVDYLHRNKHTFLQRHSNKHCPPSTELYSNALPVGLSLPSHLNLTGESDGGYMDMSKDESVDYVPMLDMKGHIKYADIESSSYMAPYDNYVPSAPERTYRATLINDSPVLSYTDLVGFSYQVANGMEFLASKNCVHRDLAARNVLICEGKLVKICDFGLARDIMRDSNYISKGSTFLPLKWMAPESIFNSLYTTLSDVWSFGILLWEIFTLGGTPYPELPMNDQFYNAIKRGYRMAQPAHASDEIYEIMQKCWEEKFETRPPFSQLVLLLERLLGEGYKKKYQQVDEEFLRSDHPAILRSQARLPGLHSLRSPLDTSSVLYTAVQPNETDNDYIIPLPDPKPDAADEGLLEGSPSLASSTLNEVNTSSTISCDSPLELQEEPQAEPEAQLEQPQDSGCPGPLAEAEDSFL
Chain of Tb-labeled inactive PDGFRβ (P09619 33-1106): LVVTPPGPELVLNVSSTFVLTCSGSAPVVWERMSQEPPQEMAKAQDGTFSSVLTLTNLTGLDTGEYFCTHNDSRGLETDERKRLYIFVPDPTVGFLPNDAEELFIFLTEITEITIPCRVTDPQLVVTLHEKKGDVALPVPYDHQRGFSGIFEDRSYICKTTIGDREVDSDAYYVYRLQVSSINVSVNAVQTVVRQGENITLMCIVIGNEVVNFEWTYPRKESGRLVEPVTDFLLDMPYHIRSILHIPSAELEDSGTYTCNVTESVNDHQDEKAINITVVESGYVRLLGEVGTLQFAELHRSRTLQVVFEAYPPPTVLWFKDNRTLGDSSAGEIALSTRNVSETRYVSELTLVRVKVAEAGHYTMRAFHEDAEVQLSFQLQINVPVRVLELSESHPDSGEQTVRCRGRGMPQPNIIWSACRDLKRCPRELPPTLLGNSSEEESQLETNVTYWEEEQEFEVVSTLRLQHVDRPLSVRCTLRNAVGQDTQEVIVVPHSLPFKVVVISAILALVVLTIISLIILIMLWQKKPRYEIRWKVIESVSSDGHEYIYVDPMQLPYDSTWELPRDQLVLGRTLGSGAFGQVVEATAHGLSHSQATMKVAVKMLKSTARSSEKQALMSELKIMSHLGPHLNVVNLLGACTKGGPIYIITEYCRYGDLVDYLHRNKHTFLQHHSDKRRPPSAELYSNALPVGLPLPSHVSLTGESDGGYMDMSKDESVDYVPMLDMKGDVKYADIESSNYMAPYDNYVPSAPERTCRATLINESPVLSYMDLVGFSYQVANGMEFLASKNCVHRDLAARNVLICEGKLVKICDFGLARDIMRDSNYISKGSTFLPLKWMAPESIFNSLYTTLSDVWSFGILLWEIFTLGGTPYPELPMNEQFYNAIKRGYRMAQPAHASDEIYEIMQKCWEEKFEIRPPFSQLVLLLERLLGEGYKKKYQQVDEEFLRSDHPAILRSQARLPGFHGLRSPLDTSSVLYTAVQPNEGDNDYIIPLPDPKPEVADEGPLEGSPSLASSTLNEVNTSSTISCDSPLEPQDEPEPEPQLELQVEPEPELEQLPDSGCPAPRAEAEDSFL

Turning to `Cc1ncc(C(=O)NCCN2CCCC23CC3)cc1NC(=O)c1cnn2cc(-c3cnn(C)c3)sc12` [Example 2, N-(5-((2-(4-azaspiro[2.4]heptan-4-yl)ethyl)carbamoyl)-2-methylpyridin-3-yl)-2-(1-methyl-1H-pyrazol-4-yl)pyrazolo[5,1-b]thiazole-7-carboxamide], the IC50 on PDGFRβ (read-out: PDGFR Cellular IC50) was 30.2 nM; against VEGFR2, unphosphorylated it was above 7500 nM; in test [1], 11.5 nM.

Turning to `Cc1ncc(C(=O)NCCN2CCCC23CCC3)cc1NC(=O)c1cnn2cc(-c3cnn(C)c3)sc12` [Example 3, N-(5-((2-(5-azaspiro[3.4]octan-5-yl)ethyl)carbamoyl)-2-methylpyridin-3-yl)-2-(1-methyl-1H-pyrazol-4-yl)pyrazolo[5,1-b]thiazole-7-carboxamide], the concentration for half-maximal inhibition (IC50) at PDGFRβ (read-out: PDGFR Cellular IC50) was 6 nM; on VEGFR2, unphosphorylated it was 6980 nM; in test [1], 4 nM.

With `Cc1ncc(NC(=O)CCN2CCCC2(C)C)cc1NC(=O)c1cnn2cc(-c3cnn(C)c3)sc12` [Example 42, N-(5-(3-(2,2-dimethylpyrrolidin-1-yl)propanamido)-2-methyl-pyridin-3-yl)-2-(1-methyl-1H-pyrazol-4-yl)pyrazolo[5,1-b]thiazole-7-carboxamide], the concentration for half-maximal inhibition (IC50) was 5.9 nM on PDGFRβ (read-out: PDGFR Cellular IC50); above 7500 nM at VEGFR2, unphosphorylated; 3.8 nM in test [1].

On to `Cc1ncc(NC(=O)CCN2CC3CCC2CC3)cc1NC(=O)c1cnn2cc(-c3cnn(C)c3)sc12` [Example 43, N-(5-(3-(2-azabicyclo[2.2.2]octan-2-yl)propanamido)-2-methylpyridin-3-yl)-2-(1-methyl-1H-pyrazol-4-yl)pyrazolo[5,1-b]thiazole-7-carboxamide], for which the IC50 on PDGFRβ (read-out: PDGFR Cellular IC50) was 7.2 nM; against VEGFR2, unphosphorylated, above 7500 nM; in test [1], 3.9 nM.

On to `Cc1ncc(NC(=O)CN2C3CCC2COC3)cc1NC(=O)c1cnn2cc(-c3cnn(C)c3)sc12` [Example 44, N-(5-(2-(3-oxa-8-azabicyclo[3.2.1]octan-8-yl)acetamido)-2-methylpyridin-3-yl)-2-(1-methyl-1H-pyrazol-4-yl)pyrazolo[5,1-b]thiazole-7-carboxamide], for which the IC50 at PDGFRβ (read-out: PDGFR Cellular IC50) was 23.7 nM; against VEGFR2, unphosphorylated it was above 7500 nM; in test [1], 11.6 nM.

Take `Cc1ncc(NC(=O)CN2CC3CC(C2)O3)cc1NC(=O)c1cnn2cc(-c3cnn(C)c3)sc12` [Example 45, N-(5-(2-(6-oxa-3-azabicyclo[3.1.1]heptan-3-yl)acetamido)-2-methylpyridin-3-yl)-2-(1-methyl-1H-pyrazol-4-yl)pyrazolo[5,1-b]thiazole-7-carboxamide]: the 50% inhibitory concentration (IC50) on PDGFRβ (read-out: PDGFR Cellular IC50) is 75.4 nM; at VEGFR2, unphosphorylated, above 7500 nM; in test [1] it was 31 nM.

Regarding `Cc1ncc(NC(=O)CN2CCC3(CC2)COC3)cc1NC(=O)c1cnn2cc(-c3cnn(C)c3)sc12` [Example 46, N-(5-(2-(2-oxa-7-azaspiro[3.5]nonan-7-yl)acetamido)-2-methylpyridin-3-yl)-2-(1-methyl-1H-pyrazol-4-yl)pyrazolo[5,1-b]thiazole-7-carboxamide], the IC50 was 85.5 nM at PDGFRβ (read-out: PDGFR Cellular IC50); above 7500 nM on VEGFR2, unphosphorylated; 89 nM in test [1].

As to `Cc1ncc(NC(=O)CN2CCOCC23CC3)cc1NC(=O)c1cnn2cc(-c3cnn(C)c3)sc12` [Example 47, N-(5-(2-(7-oxa-4-azaspiro[2.5]octan-4-yl)acetamido)-2-methylpyridin-3-yl)-2-(1-methyl-1H-pyrazol-4-yl)pyrazolo[5,1-b]thiazole-7-carboxamide], the 50% inhibitory concentration (IC50) on PDGFRβ (read-out: PDGFR Cellular IC50) is 37.2 nM; against VEGFR2, unphosphorylated it was above 7500 nM; in test [1] it was 16.5 nM.

For the compound `Cc1ncc(NC(=O)CN2Cc3cccnc3C2)cc1NC(=O)c1cnn2cc(-c3cnn(C)c3)sc12` [Example 48, N-(5-(2-(5H-pyrrolo[3,4-b]pyridin-6 (7H)-yl)acetamido)-2-methylpyridin-3-yl)-2-(1-methyl-1H-pyrazol-4-yl)pyrazolo[5,1-b]thiazole-7-carboxamide], the concentration for half-maximal inhibition (IC50) at PDGFRβ (read-out: PDGFR Cellular IC50) was 49.3 nM; on VEGFR2, unphosphorylated, above 7500 nM; in test [1], 16.8 nM.

For the compound `Cc1ncc(NC(=O)CN2CCCC(F)(F)C2)cc1NC(=O)c1cnn2cc(-c3cnn(C)c3)sc12` [Example 49, N-(5-(2-(3,3-difluoropiperidin-1-yl)acetamido)-2-methylpyridin-3-yl)-2-(1-methyl-1H-pyrazol-4-yl)pyrazolo[5,1-b]thiazole-7-carboxamide], the IC50 was 4.7 nM at PDGFRβ (read-out: PDGFR Cellular IC50); above 7500 nM on VEGFR2, unphosphorylated; 2.1 nM in test [1].

Take `Cc1ncc(NC(=O)CN2CCOC[C@H]2C)cc1NC(=O)c1cnn2cc(-c3cnn(C)c3)sc12` [Example 50, (R)-2-(1-methyl-1H-pyrazol-4-yl)-N-(2-methyl-5-(2-(3-methylmorpholino)acetamido)pyridin-3-yl)pyrazolo[5,1-b]thiazole-7-carboxamide]: the IC50 against PDGFRβ (PDGFR Cellular IC50) was 27.3 nM; at VEGFR2, unphosphorylated, above 7500 nM; in test [1], 14 nM.

For `Cc1ncc(NC(=O)CN2[C@H](C)COC[C@H]2C)cc1NC(=O)c1cnn2cc(-c3cnn(C)c3)sc12` [Example 51, N-(5-(2-((3R,5R)-3,5-dimethylmorpholino)acetamido)-2-methylpyridin-3-yl)-2-(1-methyl-1H-pyrazol-4-yl)pyrazolo[5,1-b]thiazole-7-carboxamide], the IC50 on PDGFRβ (read-out: PDGFR Cellular IC50) was 6.8 nM; at VEGFR2, unphosphorylated it was above 7500 nM; in test [1], 4.8 nM.

On to `Cc1ncc(NC(=O)CN2C[C@H](C)O[C@@H](C)C2)cc1NC(=O)c1cnn2cc(-c3cnn(C)c3)sc12` [Example 52, N-(5-(2-((2S,6S)-2,6-dimethylmorpholino)acetamido)-2-methylpyridin-3-yl)-2-(1-methyl-1H-pyrazol-4-yl)pyrazolo[5,1-b]thiazole-7-carboxamide], for which the concentration for half-maximal inhibition (IC50) at PDGFRβ (read-out: PDGFR Cellular IC50) was 0.9 nM; against VEGFR2, unphosphorylated, above 7500 nM; in test [1] it was 0.8 nM.

For the compound `Cc1ncc(NC(=O)CN2C[C@@H](C)O[C@@H](C)C2)cc1NC(=O)c1cnn2cc(-c3cnn(C)c3)sc12` [Example 53, N-(5-(2-((2R,6S)-2,6-dimethylmorpholino)acetamido)-2-methylpyridin-3-yl)-2-(1-methyl-1H-pyrazol-4-yl)pyrazolo[5,1-b]thiazole-7-carboxamide], the IC50 was 4.3 nM at PDGFRβ (read-out: PDGFR Cellular IC50); above 7500 nM on VEGFR2, unphosphorylated; 2.7 nM in test [1].

Take `Cc1ncc(NC(=O)CN2CCO[C@H](C)C2)cc1NC(=O)c1cnn2cc(-c3cnn(C)c3)sc12` [Example 54, (R)-2-(1-methyl-1H-pyrazol-4-yl)-N-(2-methyl-5-(2-(2-methylmorpholino)acetamido)pyridin-3-yl)pyrazolo[5,1-b]thiazole-7-carboxamide]: the concentration for half-maximal inhibition (IC50) at PDGFRβ (read-out: PDGFR Cellular IC50) is 11.4 nM; against VEGFR2, unphosphorylated it was above 7500 nM; in test [1] it was 12.8 nM.

With `Cc1ncc(NC(=O)CN2CCOCC2)cc1NC(=O)c1cnn2cc(-c3cnn(C)c3)sc12` [Example 55, 2-(1-methyl-1H-pyrazol-4-yl)-N-(2-methyl-5-(2-morpholinoacetamido)pyridin-3-yl)pyrazolo[5,1-b]thiazole-7-carboxamide], the IC50 was 87.1 nM on PDGFRβ (read-out: PDGFR Cellular IC50); above 7500 nM at VEGFR2, unphosphorylated; 40.6 nM in test [1].

The record behind these values is patent US20240109917A1 (ACTELION PHARMACEUTICALS LTD, priority 2020, published 2024).
